Assay results from patent US11793861B2, “PTH prodrugs” (ASCENDIS PHARMA BONE DISEASES A/S, priority 2016, dated 2023).

What was measured:
[1] = cited from earlier work
[2] = tested on: thyroparathyroidectomised (TPTx) rats; assay: Pharmacodynamic actions in thyroparathyroidectomised (TPTx) rats, 28-days daily subcutaneous injections; type: in vivo, SD rats
Method: Quantitative measurements of serum calcium (sCa), urinary calcium and serum phosporous (sP) were performed on a Roche-Hitachi P800 modular biochemistry instrument.
Rats subjected to thyroparathyroidectomy (TPTx) by blunt dissection are unable to produce parathyroid hormone, PTH, the major regulator of calcium homeostasis. […] Additionally, one group of sham operated rats (n=9) representing normophysiological background control were also given vehicle. Serum calcium (sCa) and phosporous (sP) levels in the animals were measured pre- and post-dose on days 1, 6, 12 and 27. Moreover, bone turnover markers (P1NP and CTx) were measured and bone quality assessed by ex vivo pQCT.

PTH(1-84): Natpara®, PTH(1-84), approved by the FDA for hypoparathyroidism; the current standard of care (SEQ ID NO:1)
PTH Cmax ([1]; currently approved doses): 0.3 ng/mL
control of urinary calcium excretion ([1]; daily injections, FDA review): failed to provide adequate control
incidence of hypercalcemia and hypocalcemia compared to placebo ([1]; in vivo): did not improve
trabecular BMD compared to both control groups ([2]; 28 days treatment): significant increase
effect on serum phosphorous (sP) ([2]; TPTx rats, daily sc): minimal decrease
effect on serum calcium (sCa) ([2]; TPTx rats, daily sc, 18 at […], PTH(1-84) at 7.3 nmol/kg/d): did not lead to increase in sCa
serum calcium (sCa) at day 12 ([2]; TPTx rats, 18 at […], PTH(1-84) at 7.3 nmol/kg/d, sc): 8.1 mg/dL
trabecular and cortical BMD in vertebrae ([2]; following 28 days of treatment): anabolic effect
